Biological target: Can f 1 (Canis lupus, UniProt O18873)
Assay: fluorescence titration (excitation […] nm, emission […] nm)
Assay type: binding

Chain of Can f 1 (O18873 19-174): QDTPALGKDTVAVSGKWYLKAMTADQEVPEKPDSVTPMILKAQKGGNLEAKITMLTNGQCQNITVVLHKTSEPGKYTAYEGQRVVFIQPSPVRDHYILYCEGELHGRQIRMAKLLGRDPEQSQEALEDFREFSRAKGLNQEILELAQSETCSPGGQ

Kd: 2100 nM
Compound: O=S(=O)(O)c1cccc2cccc(Nc3ccccc3)c12 [ANS, 8-anilinonaphthalene-1-sulfonic acid]

Reference: article PMC10883907, “Phage-display reveals interaction of lipocalin allergen Can f 1 with a peptide resembling the antigen binding region of a human γδT-cell receptor” (Biological Chemistry, 2020)
